Laboratory results taken from patent US9512180B2, “Compstatin analogs” (THE REGENTS OF THE UNIVERSITY OF CALIFORNIA, priority 2012, dated 2016).
“Also recorded” adds a separate entry of the source. Bridge positions count the residues as written; N and C are the ends. Peptide text beside a SMILES is read from it.

Legend:
[1] = tested on: complement alternative pathway (AP); test: Hemolytic assay (rabbit erythrocyte lysis in human serum); assay type: cell-based; conditions: table 13; read-out: Lysis IC50
Method: Inhibition of complement was also measured via lysis of erythrocytes. Rabbit erythrocytes (Complement Technology Inc., Tyler, Tex., USA) were washed in PBS and resuspended in veronal-buffered saline with 5 mM MgCl2 and 10 mM EGTA (VBS-MgEGTA). Peptide and serum dilutions were prepared as described above, and 1×10^7 erythrocytes were added to each serum/peptide mixture. Erythrocytes diluted in sterile deionized water and in VBS-MgEGTA were used as positive and negative controls for lysis, respectively. Plates were incubated for 20 minutes at 37° C., and centrifuged at 2500×g for 10 minutes.
In all assays, MgEGTA was used to chelate Ca′ ions required for classical/lectin pathway complement activation, while providing Mg′ necessary for AP activation. ELISAs allow for direct detection of C3b and C5b-9 formed during AP activation, while erythrocyte lysis assays provide a functional assessment of AP-mediated hemolysis in serum.

[2] = tested on: complement alternative pathway (AP); test: C3b ELISA (inhibition of C3b formation); assay type: biochemical, human; conditions: table 13; read-out: C3b ELISA IC50
Method: (§1) Inhibition of the complement alternative pathway (AP) by compstatin family peptides was assayed by ELISA. Peptides were dissolved in phosphate buffered saline (PBS, 150 mM). Initial peptide concentrations were calculated using the Beer-Lambert Law with an extinction coefficient of 5,500 (1/M·cm) for Trp and 5,470 (1/M·cm) for methylated-Trp present in the sequence, at 280 nm. Nunc Maxisorp 96-well plates were coated with 1 μg lipopolysaccharides (LPS) from Salmonella enteriditis for ˜16 h at room temperature. Plates were washed three times with PBS/0.05% Tween-20 (PBS-T) between each step. Plates were blocked with 4% bovine serum albumin (BSA) in PBS-T for 1 h at 37° C. Serial peptide dilutions were performed in 96-well plates, using gelatin veronal-buffered saline with 5 mM MgCl2 and 10 mM EGTA (GVBS-MgEGTA). Normal human serum (Complement Technology Inc., Tyler, Tex., USA) was diluted in GVBS-MgEGTA and mixed with compstatin serial dilutions to a final concentration of 30%. Serum diluted in GVBS-MgEGTA and GVBS (containing 20 mM EDTA) were used as positive and negative controls for complement activation, respectively. Dilutions were preincubated for 15 minutes at room temperature, transferred to ELISA plates, and incubated for 1 h at 37° C. Generation of C3b and C5b-9 were assayed using horseradish peroxidase (HRP)-conjugated anti-C3 (MP Biomedicals, Solon, Ohio, USA) and anti-05b-9 aEll (Abcam, Cambridge, Mass., USA), respectively. Plates were washed and incubated with either anti-C3-HRP (1:5000 in 1% BSA/PBS-T) or anti-05b-9 (1:1000 in 1% BSA/PBS-T) for 1 h at 37° C. For C5b-9 detection, primary antibody incubation was followed by incubation with anti-mouse-HRP (BioRad, Hercules, Calif., USA) for 1 h at 37° C. (1:5000 in 1% BSA/PBS-T). Bound C3b and C5b-9 were quantified using a 3,3′,5,5′-tetramethylbenzidine substrate solution containing urea hydrogen peroxide in 0.11 M sodium acetate buffer, followed by a 1 N H2SO4 acid stop. Plates were measured spectrophotometrically at 450 nm. Percent inhibition of C3b and C5b-9 deposition was plotted against peptide concentration and the data was fitted to a logistic dose response curve with Prism software (GraphPad, San Diego, Calif., USA) to determine IC50 values.
(§2) In all assays, MgEGTA was used to chelate Ca′ ions required for classical/lectin pathway complement activation, while providing Mg′ necessary for AP activation. ELISAs allow for direct detection of C3b and C5b-9 formed during AP activation, while erythrocyte lysis assays provide a functional assessment of AP-mediated hemolysis in serum. […] Table 9 summarizes the IC50 values derived from the three different assays. […] The relative potencies of the peptides, based on the measured ICH values, are consistent across all three assays (Peptide III˜Peptide VI˜Peptide IX>Peptide I>Parent). Based on the assay conditions used in this study, peptides inhibited C5b-9 formation with moderately better efficacy than formation of C3b, while slightly higher concentrations were necessary to inhibit AP-mediated hemolysis.

[3] = tested on: complement alternative pathway (AP); test: C5b-9 ELISA (inhibition of C5b-9 terminal complex formation); assay type: biochemical, human; conditions: table 13; read-out: C5b-9 ELISA IC50
Method: as §1, §2

[4] = tested on: complement system; test: Preliminary ELISA-based complement system inhibition assays, human serum; assay type: biochemical; conditions: preliminary data
Excerpt: For some of the peptides studied here, W1, W13, R1, and S-1S0, there is experimental evidence for inhibitory activity against hC3. […] The structural rationale was that the positively charged backbone amino group was disrupting the hydrophobic cluster at the termini (spanning residues 11-C2-V3-V4/C12/T13 of native compstatin), which was deemed necessary for binding and activity before the availability of the structure of the C3c-W4A9 complex, and that upon removal of the positive charge by acetylation the hydrophobic cluster was fortified and contributed to the 3-fold increase in activity. […] The peptide with the diserine extension is expected to be active, as the diserine was present at the N-terminus of the original 32-amino acid peptide that was identified in the phage-display and a subsequent study.

[5] = Experimental solubility of analogs (method not described); assay type: physicochemical; conditions: aqueous environment
[6] = target: hC3 (Homo sapiens, UniProt P01024); test: Activity measurements of inhibitory activity against hC3 (method not described); conditions: relative to W4A9
hC3, sequence (P01024 23-1663): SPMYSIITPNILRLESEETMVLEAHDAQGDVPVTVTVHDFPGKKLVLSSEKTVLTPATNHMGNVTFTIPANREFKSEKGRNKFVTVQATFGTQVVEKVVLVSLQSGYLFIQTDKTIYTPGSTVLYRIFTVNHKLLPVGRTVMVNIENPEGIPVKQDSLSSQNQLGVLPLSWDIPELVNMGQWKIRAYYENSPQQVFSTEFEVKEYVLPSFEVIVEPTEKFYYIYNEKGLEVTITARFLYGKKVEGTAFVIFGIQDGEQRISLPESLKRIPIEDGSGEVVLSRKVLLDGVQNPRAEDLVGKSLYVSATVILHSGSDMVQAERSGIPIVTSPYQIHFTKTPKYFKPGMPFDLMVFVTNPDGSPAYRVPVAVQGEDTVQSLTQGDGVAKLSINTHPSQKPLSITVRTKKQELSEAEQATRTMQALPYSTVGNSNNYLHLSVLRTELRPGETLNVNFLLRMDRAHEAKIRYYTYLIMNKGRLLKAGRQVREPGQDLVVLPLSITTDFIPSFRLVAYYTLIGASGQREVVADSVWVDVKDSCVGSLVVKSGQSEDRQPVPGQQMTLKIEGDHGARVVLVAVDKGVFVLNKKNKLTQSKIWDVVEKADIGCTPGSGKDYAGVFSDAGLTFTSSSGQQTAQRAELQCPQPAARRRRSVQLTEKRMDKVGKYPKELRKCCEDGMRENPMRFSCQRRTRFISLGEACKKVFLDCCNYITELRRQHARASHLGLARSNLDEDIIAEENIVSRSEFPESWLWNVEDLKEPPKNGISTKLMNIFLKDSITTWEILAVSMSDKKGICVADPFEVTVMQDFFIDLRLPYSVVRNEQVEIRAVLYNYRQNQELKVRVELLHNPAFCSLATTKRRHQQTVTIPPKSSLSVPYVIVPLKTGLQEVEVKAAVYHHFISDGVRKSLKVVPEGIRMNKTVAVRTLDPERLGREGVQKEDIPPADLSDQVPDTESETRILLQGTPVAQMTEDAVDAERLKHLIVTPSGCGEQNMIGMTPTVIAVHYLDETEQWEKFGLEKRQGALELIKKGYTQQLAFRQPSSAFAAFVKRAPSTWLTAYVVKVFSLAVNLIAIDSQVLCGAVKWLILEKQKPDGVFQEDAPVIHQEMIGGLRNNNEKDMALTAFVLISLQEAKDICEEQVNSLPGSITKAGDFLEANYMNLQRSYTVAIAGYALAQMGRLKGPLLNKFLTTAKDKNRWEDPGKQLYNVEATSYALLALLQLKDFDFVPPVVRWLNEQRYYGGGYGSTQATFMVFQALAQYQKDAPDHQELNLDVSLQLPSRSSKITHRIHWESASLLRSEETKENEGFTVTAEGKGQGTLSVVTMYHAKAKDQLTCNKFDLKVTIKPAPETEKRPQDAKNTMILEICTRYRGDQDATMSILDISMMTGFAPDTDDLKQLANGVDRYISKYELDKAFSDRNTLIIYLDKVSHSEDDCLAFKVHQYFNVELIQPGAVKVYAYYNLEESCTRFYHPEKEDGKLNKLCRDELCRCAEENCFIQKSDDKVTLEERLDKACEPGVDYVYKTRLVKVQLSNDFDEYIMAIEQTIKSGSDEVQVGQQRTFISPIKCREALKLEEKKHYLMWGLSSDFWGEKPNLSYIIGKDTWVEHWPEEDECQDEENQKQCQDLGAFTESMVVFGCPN

`CC[C@H](C)[C@H](NC(=O)[C@H](CO)NC(=O)[C@H](CCCNC(=N)N)NC(C)=O)C(=O)N[C@H]1CSSC[C@@H](C(=O)N[C@H](C(N)=O)[C@@H](C)O)NC(=O)[C@H](CCCNC(=N)N)NC(=O)[C@H](Cc2c[nH]cn2)NC(=O)[C@H](C)NC(=O)CNC(=O)[C@H](Cc2c[nH]c3ccccc23)NC(=O)[C@H](CC(=O)O)NC(=O)[C@H](CCC(N)=O)NC(=O)[C@H](Cc2c[nH]c3ccccc23)NC(=O)[C@H](C(C)C)NC1=O` [Peptide 3.4, Ac-RS-ICV WQDWGA HRCT-NH2] showed an IC50 [1] of 300 ± 100 nM, an IC50 [2] of 700 ± 100 nM and an IC50 [3] of 600 ± 100 nM.
With `CC[C@H](C)[C@H](NC(=O)[C@H](CO)NC(=O)[C@H](CO)NC(C)=O)C(=O)N[C@H]1CSSC[C@@H](C(=O)N[C@H](C(N)=O)[C@@H](C)O)NC(=O)[C@H](CCCNC(=N)N)NC(=O)[C@H](Cc2c[nH]cn2)NC(=O)[C@H](C)NC(=O)CNC(=O)[C@H](Cc2c[nH]c3ccccc23)NC(=O)[C@H](CC(=O)O)NC(=O)[C@H](CCC(N)=O)NC(=O)[C@H](Cc2c[nH]c3ccccc23)NC(=O)[C@H](C(C)C)NC1=O` [Peptide IV, Ac-SS-ICV WQDWGA HRCT-NH2] the “inhibitory activity in human serum (in words)” value [4] was “higher than those of native compstatin and slightly lower than those of the W4A9 analog”.
Compound `CC(=O)N[C@@H](CC(N)=O)C(=O)N[C@@H](CC(N)=O)C(=O)N[C@@H](CC(C)C)C(=O)N[C@H]1CSSC[C@@H](C(=O)N[C@H](C(N)=O)[C@@H](C)O)NC(=O)[C@H](CCCNC(=N)N)NC(=O)[C@H](Cc2c[nH]cn2)NC(=O)[C@H](C)NC(=O)CNC(=O)[C@H](Cc2c[nH]c3ccccc23)NC(=O)[C@H](CC(=O)O)NC(=O)[C@H](CCC(N)=O)NC(=O)[C@H](Cc2c[nH]c3ccccc23)NC(=O)[C@H](C(C)C)NC1=O` [Peptide 3.2, Ac-NN-LCV WQDWGA HRCT-NH2] (Ac-NNLCVWQDWGAHRCT-NH2; disulfide 4-14) has an IC50 [1] of 300 ± 100 nM, an IC50 [2] of 600 ± 100 nM and an IC50 [3] of 500 ± 100 nM.
For `CC(=O)N[C@@H](CC(N)=O)C(=O)N[C@@H](CCCNC(=N)N)C(=O)N[C@@H](CC(C)C)C(=O)N[C@H]1CSSC[C@@H](C(=O)N[C@H](C(N)=O)[C@@H](C)O)NC(=O)[C@H](CCCNC(=N)N)NC(=O)[C@H](Cc2c[nH]cn2)NC(=O)[C@H](C)NC(=O)CNC(=O)[C@H](Cc2c[nH]c3ccccc23)NC(=O)[C@H](CC(=O)O)NC(=O)[C@H](CCC(N)=O)NC(=O)[C@H](Cc2c[nH]c3ccccc23)NC(=O)[C@H](C(C)C)NC1=O` [Peptide 3.3, Ac-NR-LCV WQDWGA HRCT-NH2] (Ac-NRLCVWQDWGAHRCT-NH2; disulfide 4-14), the IC50 [1] was 300 ± 100 nM, the IC50 [2] was 600 ± 100 nM and the IC50 [3] was 500 ± 100 nM.
In the case of `CC[C@H](C)[C@H](NC(C)=O)C(=O)N[C@H]1CSSC[C@@H](C(=O)N[C@@H](Cc2c[nH]c3ccccc23)C(N)=O)NC(=O)[C@H](CCCNC(=N)N)NC(=O)[C@H](Cc2c[nH]cn2)NC(=O)[C@H](C)NC(=O)CNC(=O)[C@H](Cc2c[nH]c3ccccc23)NC(=O)[C@H](CC(=O)O)NC(=O)[C@H](CCC(N)=O)NC(=O)[C@H](Cc2c[nH]c3ccccc23)NC(=O)[C@H](C(C)C)NC1=O` [Peptide W13] (Ac-ICVWQDWGAHRCW-NH2; disulfide 2-12), the “solubility (in words)” value [5] is reported as “slightly reduced activities and solubilities; also recorded: solubility problems in aqueous environment” and the “inhibitory activity against hC3 (in words)” value [6] is reported as “slightly reduced activities”.
In the case of `CC(=O)N[C@@H](Cc1c[nH]c2ccccc12)C(=O)N[C@H]1CSSC[C@@H](C(=O)N[C@@H](Cc2c[nH]c3ccccc23)C(N)=O)NC(=O)[C@H](CCCNC(=N)N)NC(=O)[C@H](Cc2c[nH]cn2)NC(=O)[C@H](C)NC(=O)CNC(=O)[C@H](Cc2c[nH]c3ccccc23)NC(=O)[C@H](CC(=O)O)NC(=O)[C@H](CCC(N)=O)NC(=O)[C@H](Cc2c[nH]c3ccccc23)NC(=O)[C@H](C(C)C)NC1=O` [Peptide W1W13] (Ac-WCVWQDWGAHRCW-NH2; disulfide 2-12), the “solubility (in words)” value [5] is reported as “slightly reduced activities and solubilities” and the “inhibitory activity against hC3 (in words)” value [6] is reported as “slightly reduced activities”.
In the case of `CC(=O)N[C@@H](Cc1c[nH]c2ccccc12)C(=O)N[C@H]1CSSC[C@@H](C(=O)N[C@H](C(N)=O)[C@@H](C)O)NC(=O)[C@H](CCCNC(=N)N)NC(=O)[C@H](Cc2c[nH]cn2)NC(=O)[C@H](C)NC(=O)CNC(=O)[C@H](Cc2c[nH]c3ccccc23)NC(=O)[C@H](CC(=O)O)NC(=O)[C@H](CCC(N)=O)NC(=O)[C@H](Cc2c[nH]c3ccccc23)NC(=O)[C@H](C(C)C)NC1=O` [Peptide W1] (Ac-WCVWQDWGAHRCT-NH2; disulfide 2-12), the “solubility (in words)” value [5] is reported as “good solubility” and the “inhibitory activity against hC3 (in words)” value [6] is reported as “near-W4A9 inhibitory activity”.
Work on `CC[C@H](C)[C@H](NC(=O)[C@H](CCCNC(=N)N)NC(=O)[C@H](CCC(=O)O)NC(C)=O)C(=O)N[C@H]1CSSC[C@@H](C(=O)N[C@H](C(N)=O)[C@@H](C)O)NC(=O)[C@H](CCCNC(=N)N)NC(=O)[C@H](Cc2c[nH]cn2)NC(=O)[C@H](C)NC(=O)CNC(=O)[C@H](Cc2c[nH]c3ccccc23)NC(=O)[C@H](CC(=O)O)NC(=O)[C@H](CCC(N)=O)NC(=O)[C@H](Cc2c[nH]c3ccccc23)NC(=O)[C@H](C(C)C)NC1=O` [Peptide 3.1, Ac-ER-ICV WQDWGA HRCT-NH2] yielded an IC50 [1] of 900 ± 200 nM, an IC50 [2] of 900 ± 100 nM and an IC50 [3] of 500 ± 100 nM.
